Several values for one entry are separate records, joined by “and”; a condition that tells them apart may be missing. Equal entries are not always repeated. Structures can show the parent of a compound that is named as a salt.
Conditions: Transpiration method

CC(C)OC(=O)CC(=O)OC(C)C [diisopropyl malonate]
Liquid
Conditions | vapor or sublimation pressure [kPa]
289.3 K | 0.00784
292.5 K | 0.0105
295.4 K | 0.0139
298.4 K | 0.0172
301.4 K | 0.0228
304.4 K | 0.0293
307.4 K | 0.0375
310.4 K | 0.0471
313.4 K | 0.0581
315.4 K | 0.0688
316.5 K | 0.0757
318.5 K | 0.0862
319.4 K | 0.0965
321.5 K | 0.1068
322.5 K | 0.1138
323.5 K | 0.1282
325.4 K | 0.1468

CC(C)OC(=O)CCCC(=O)OC(C)C [bis(1-methylethyl) pentanedioate]
Liquid
Conditions | vapor or sublimation pressure [kPa]
294.5 K | 0.00137
297.5 K | 0.00175
300.5 K | 0.00246
303.4 K | 0.00328
306.4 K | 0.00433
309.5 K | 0.00594
312.5 K | 0.00714
315.5 K | 0.00958
318.6 K | 0.0126
322.7 K | 0.017
324.4 K | 0.0199
327.4 K | 0.0251

CC(C)(C)OC(=O)CCC(=O)OC(C)(C)C [di-tert-butyl succinate]
Liquid
Conditions | vapor or sublimation pressure
323.2 K | 0.0331 kPa
326.2 K | 0.0419 kPa
331.2 K | 0.0592 kPa
333.2 K | 0.0697 kPa
335.2 K | 0.0817 kPa
337.2 K | 0.0885 kPa
339.2 K | 0.1043 kPa
341.2 K | 0.1198 kPa
343.2 K | 0.1351 kPa
345.2 K | 0.1498 kPa and 0.1534 kPa
347.2 K | 0.1716 kPa
349.2 K | 0.2009 kPa
351.2 K | 0.2187 kPa
353.2 K | 0.2523 kPa
355.2 K | 0.2842 kPa

CC(C)(C)OC(=O)CC(=O)OC(C)(C)C [bis(1,1-dimethylethyl) propanedioate]
Liquid
Conditions | vapor or sublimation pressure [kPa]
293.7 K | 0.00787
295.7 K | 0.00952
298.6 K | 0.0122
301.7 K | 0.0159
303.6 K | 0.0186
306.6 K | 0.023
308.6 K | 0.0274
310.7 K | 0.0337
312.6 K | 0.0399
315.6 K | 0.0494
317.6 K | 0.055
319.6 K | 0.0663
321.6 K | 0.0714
323.6 K | 0.0845
324.7 K | 0.0934
327.6 K | 0.1125
333.5 K | 0.1828
336.5 K | 0.2131
339.5 K | 0.2702
342.5 K | 0.333
345.5 K | 0.3886

CC(C)(C)OC(=O)C(=O)OC(C)(C)C [di-tert-butyl oxalate]
Conditions | vapor or sublimation pressure [kPa]
293.8 K, Crystal | 0.00391
296.7 K, Crystal | 0.0058
299.7 K, Crystal | 0.00793
302.7 K, Crystal | 0.0109
305.7 K, Crystal | 0.0154
308.3 K, Crystal | 0.0201
308.8 K, Crystal | 0.0217
311.2 K, Crystal | 0.0276
311.7 K, Crystal | 0.0293
314.2 K, Crystal | 0.0384
314.7 K, Crystal | 0.0405
317.6 K, Crystal | 0.0574
320.7 K, Crystal | 0.0769
323.2 K, Crystal | 0.0956
323.6 K, Crystal | 0.1
326.6 K, Crystal | 0.1313
329.6 K, Crystal | 0.1637
333.2 K, Crystal | 0.2253
333.7 K, Crystal | 0.2468
338.2 K, Crystal | 0.3739
338.6 K, Crystal | 0.3689
345.6 K, Liquid | 0.4066
346.7 K, Liquid | 0.4358
347.6 K, Liquid | 0.4703
348.6 K, Liquid | 0.4816
351.5 K, Liquid | 0.5565
351.7 K, Liquid | 0.5963
352.5 K, Liquid | 0.6078
354.5 K, Liquid | 0.6715
356.5 K, Liquid | 0.7609
357.5 K, Liquid | 0.799
360.7 K, Liquid | 0.9613
361.2 K, Liquid | 1
363.7 K, Liquid | 1.053
366.2 K, Liquid | 1.252
371.2 K, Liquid | 1.638

CC(C)OC(=O)C(=O)OC(C)C [diisopropyl oxalate]
Liquid
Conditions | vapor or sublimation pressure [kPa]
287.5 K | 0.0149
290.4 K | 0.0197
293.3 K | 0.0254
297.3 K | 0.035
300.3 K | 0.0452
303.3 K | 0.0576
306.3 K | 0.0712
308.3 K | 0.0846
311.2 K | 0.1081
313.3 K | 0.1266
316.3 K | 0.151
318.4 K | 0.1722
318.5 K | 0.1731
321.2 K | 0.2066
322.4 K | 0.2247
323.6 K | 0.2533
326.4 K | 0.2884
330.5 K | 0.3766

CC(C)OC(=O)CCC(=O)OC(C)C [bis(1-methylethyl) butanedioate]
Liquid
Conditions | vapor or sublimation pressure [kPa]
304.4 K | 0.0113
307.4 K | 0.0147
310.4 K | 0.0186
313.4 K | 0.0236
316.4 K | 0.0301
318.5 K | 0.0352
321.4 K | 0.0448
323.4 K | 0.0527
326.4 K | 0.0651
328.5 K | 0.0749
331.4 K | 0.096
333.3 K | 0.1092

CC(C)(C)OC(=O)CCCC(=O)OC(C)(C)C [di-tert-butyl glutarate]
Liquid
Conditions | vapor or sublimation pressure [kPa]
295.2 K | 0.00104
297.2 K | 0.0013
299.2 K | 0.00157
301.2 K | 0.00187
303.2 K | 0.00231
305.2 K | 0.00276
307.2 K | 0.00334
309.2 K | 0.00393
311.2 K | 0.00471
313.2 K | 0.00581
315.2 K | 0.00674
317.2 K | 0.00801
319.2 K | 0.00909
321.2 K | 0.0104
323.2 K | 0.0123
325.2 K | 0.0152

CC(C)(C)OC(=O)CCCCC(=O)OC(C)(C)C [di-tert-butyl adipate]
Liquid
Conditions | vapor or sublimation pressure [kPa]
322.6 K | 0.00711
323.4 K | 0.00757
326.2 K | 0.00926
329 K | 0.0113
331.8 K | 0.01428
336 K | 0.01907
338 K | 0.02216
341 K | 0.02859
344 K | 0.03272
346.9 K | 0.04033
349.9 K | 0.0511
352.9 K | 0.06145
355.9 K | 0.07647
358.9 K | 0.09287
361.9 K | 0.1117
362.4 K | 0.1137
362.5 K | 0.1144
366.3 K | 0.1453

Source: the NIST ThermoML archive (doi:10.1016/j.fluid.2011.07.007)
